The nature of data set [1]: dissolution of the 11β-aminoester salts in aqueous acid (Table 5 and Examples 101, 225-229). Format: physicochemical. The method in brief:
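11β-Aminoester free base combined with 1 molar part of acid (citric acid as monohydrate) in water, with extra acid or prior ethanol co-evaporation in some methods. Solution made up to set weight, undissolved base collected and weighed to calculate dissolved amount. Solution pH measured.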

The nature of a further data set: pH of the salt solutions. The data set is classed as physicochemical. The method in brief:
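Aminoester free base mixed with 1 molar part acid in water, stirred or shaken, with extra acid or ethanol evaporation in some methods, then made up with water to set weight. Undissolved base collected and weighed to calculate dissolved base; solution membrane-filtered and pH measured.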

[2] abbreviates: method B: further acid added, undissolved material weighed, WT. of solution 10 g, except Ex. 130 and 141: 9.2, 142: 9.23, 143, 144, 189 and 199: 9.8, 149: 10.6, 153: 7.9, 162 and 188: 9.5, 163: 68, 166: 10.4, 168: 10.7, 169: 10.9, 183: 8.05, 184 and 201: 9.83, 185: 7.1, 186: 9.3, 192: 10.07, 193: 6.4, 195: 6.8, 196: 7, 197: 7.2, 200: 10.1, 206: 15 g.
[3] abbreviates: aqueous solution of the salt, Table 5.
[4] abbreviates: method D: 1 molar part acid, undissolved material weighed, WT. of solution 10 g, except Ex. 136: 8.95, 140: 9.52, 165 and 167: 10.1, 190 and 198: 9.8, 191: 8.9, 194: 6.6, 204: 10.09, 219: 10.6 g.
The mark [5] stands for this setting: method C: ethanol evaporated, residue in water, undissolved material weighed, WT. of solution Ex. 118: 10, 120: 10.4, 148: 9.54, 152: 5.6, 154: 9.1, 155: 8.77, 156: 9.06, 157: 9.5, 158: 9.38, 159: 9.17, 179: 9.65, 180: 11.7, 182: 4.9, 202: 12.05, 213: 12, 214: 11.5, 215: 11.1, 216: 11.6, 217: 12.1 g.
The mark [6] stands for this setting: method A: clear solution, 1 molar part acid, made up with water to WT. of solution 10 g, except Ex. 121 and 150: 12, 123: 12.3, 124: 7.5, 129: 10.3, 135 and 139: 8.95, 164: 10.35, 170: 10.4, 181: 10.04, 187: 9.5, 210: 10.2, 221: 15 g.
Setting [7] is: method E: as C with further acid, WT. of solution Ex. 160: 6.12, 161: 7.8, 203: 12.7, 212: 12.125, 220: 10 g.

Structures can show the parent of a compound that is named as a salt.

In the case of `CCCC(C)NCC(=O)O[C@H]1C[C@]2(C)[C@@H](C(C)=O)CC[C@H]2[C@@H]2CC[C@H]3C[C@H](O)CC[C@]3(C)[C@H]21` (stereo partly drawn) [Example 141], the Dissolved aminoester in data set [1] (setting [2]) was 77.3 mg. In addition, the pH in the data set “pH of the salt solutions” (setting [3]) worked out at 2.89.
The matching figures for `CCC(C)CN(C)CC(=O)O[C@H]1C[C@]2(C)[C@@H](C(C)=O)CC[C@H]2[C@@H]2CC[C@H]3C[C@H](O)CC[C@]3(C)[C@H]21` (stereo partly drawn) [Example 186]: 75 mg and 2.85.
With `CCO[C@H]1C[C@@]2(C)[C@@H](CC[C@@H]3[C@@H]2[C@@H](OC(=O)CN(CC)CC)C[C@]2(C)[C@@H](C(C)=O)CCC[C@@H]32)C[C@@H]1O` [Example 225 citrate salt], the “concentration of aqueous solution of the citrate” value in data set [1] (citric acid monohydrate in water, filtered solution) was 9750 µg/mL. The pH in the data set “pH of the salt solutions” (aqueous solution of the citrate, filtered, 9.5-10 mg/ml) came to 3.66.
In the case of `CC(=O)[C@H]1CC[C@H]2[C@@H]3CC[C@H]4C[C@H](O)CC[C@]4(C)[C@H]3[C@@H](OC(=O)CN(C)[C@@H](C)CC(C)C)C[C@]12C` [Example 199], the Dissolved aminoester in data set [1] (setting [2]) turned out to be 88 mg. In addition, the pH in “pH of the salt solutions” (setting [3]) was found to be 3.12.
On to `CCOC1CC2(C)C(CCC3C4CCC(C(C)=O)C4(C)CC(OC(=O)CNCCC(C)C)C32)CC1O` (stereo not drawn) [Example 165], for which the Dissolved aminoester in data set [1] (setting [4]) is 76.5 mg. Besides, the pH in the data set “pH of the salt solutions” (setting [3]) stood at 3.68.
Consider `C=CCN(CC=C)CC(=O)O[C@H]1C[C@]2(C)[C@@H](C(C)=O)CC[C@H]2[C@@H]2CC[C@H]3C[C@H](O)CC[C@]3(C)[C@H]21` [Example 118], for which the Dissolved aminoester in data set [1] (setting [5]) is 38 mg. The pH in “pH of the salt solutions” (setting [3]) worked out at 2.55.
For `CCCC(C)N(C)CC(=O)O[C@H]1C[C@]2(C)[C@@H](C(C)=O)CC[C@H]2[C@@H]2CC[C@H]3C[C@H](O)CC[C@]3(C)[C@H]21` (stereo partly drawn) [Example 187], in data set [1] (setting [6]), the Dissolved aminoester was 95 mg. Besides, the pH in the data set “pH of the salt solutions” (setting [3]) turned out to be 3.63.
The matching figures for `CCCCN(CC)CC(=O)O[C@H]1C[C@]2(C)[C@@H](C(C)=O)CC[C@H]2[C@@H]2CC[C@H]3C[C@H](O)CC[C@]3(C)[C@H]21` [Example 221]: 150 mg and 3.52.
With `CC(=O)[C@H]1CC[C@H]2[C@@H]3CC[C@H]4C[C@H](O)CC[C@]4(C)[C@H]3[C@@H](OC(=O)C(C)N3CCC(C)CC3)C[C@]12C` (stereo partly drawn) [Example 179], in data set [1] (setting [5]), the Dissolved aminoester was 96.5 mg. Besides, the pH in “pH of the salt solutions” (aqueous solution, pH adjusted with sodium hydroxide solution) is 3.66.
Take `CCN(CC)CC(=O)O[C@H]1C[C@]2(C)[C@@H](C(C)=O)CC[C@H]2[C@@H]2CC[C@H]3C[C@H](O)[C@@H](SC#N)C[C@]3(C)[C@H]21` [Example 204]: the Dissolved aminoester in data set [1] (setting [4]) is 88.7 mg. Further, the pH in “pH of the salt solutions” (setting [3]) is 3.5.
`CC(=O)[C@H]1CC[C@H]2[C@@H]3CC[C@H]4C[C@H](O)CC[C@]4(C)[C@H]3[C@@H](OC(=O)CN(C)[C@H](C)CC(C)C)C[C@]12C` [Example 198]: in data set [1] (setting [4]), the Dissolved aminoester stood at 90 mg. Moreover, the pH in “pH of the salt solutions” (setting [3]) was 3.62.
Take `CCCCN(C)CC(=O)O[C@H]1C[C@]2(C)[C@@H](C(C)=O)CC[C@H]2[C@@H]2CC[C@H]3C[C@H](O)[C@@H](OCC)C[C@]3(C)[C@H]21` [Example 121]: the Dissolved aminoester in data set [1] (setting [6]) turned out to be 120 mg. The pH in “pH of the salt solutions” (setting [3]) is 3.65.
For the compound `CC(=O)[C@H]1CC[C@H]2[C@@H]3CC[C@H]4C[C@H](O)CC[C@]4(C)[C@H]3[C@@H](OC(=O)CN3CCC(C)CC3)C[C@]12C` [Example 158], in data set [1] (setting [5]), the Dissolved aminoester came to 93.8 mg. Moreover, in the data set “pH of the salt solutions” (setting [3]), the pH is 3.60.
Regarding `CCC(C)CN(CC)CC(=O)O[C@H]1C[C@]2(C)[C@@H](C(C)=O)CC[C@H]2[C@@H]2CC[C@H]3C[C@H](O)CC[C@]3(C)[C@H]21` (stereo partly drawn) [Example 196], the Dissolved aminoester in data set [1] (setting [2]) is recorded as 39 mg. Moreover, in “pH of the salt solutions” (setting [3]), the pH came to 2.53.
Regarding `CCOC1CC2(C)C(CCC3C4CCC(C(C)=O)C4(C)CC(OC(=O)CN4CCC(C)CC4)C32)CC1O` (stereo not drawn) [Example 164], the Dissolved aminoester in data set [1] (setting [6]) came to 103.5 mg. In the data set “pH of the salt solutions” (setting [3]), the pH is 3.72.
As to `CC(=O)[C@H]1CC[C@H]2[C@@H]3CC[C@H]4C[C@H](O)CC[C@]4(C)[C@H]3[C@@H](OC(=O)CN3CCCC3)C[C@]12C` [Example 155], in data set [1] (setting [5]), the Dissolved aminoester was determined as 87.7 mg. The pH in the data set “pH of the salt solutions” (setting [3]) turned out to be 3.45.
Regarding `CC(=O)[C@H]1CC[C@H]2[C@@H]3CC[C@H]4C[C@](C)(O)CC[C@]4(C)[C@H]3[C@@H](OC(=O)CN3CCC(C)CC3)C[C@]12C` [Example 134], the Dissolved aminoester in data set [1] (setting [4]) amounted to 84 mg. The pH in the data set “pH of the salt solutions” (setting [3]) was determined as 3.2.
As for `CC(=O)[C@H]1CC[C@H]2[C@@H]3CC[C@H]4C[C@H](O)CC[C@]4(C)[C@H]3[C@@H](OC(=O)CN(C)CC(C)(C)C)C[C@]12C` [Example 188], in data set [1] (setting [2]), the Dissolved aminoester is reported as 31 mg. The pH in the data set “pH of the salt solutions” (setting [3]) was 2.58.
On the same counts, the results for `CCN(CC(=O)O[C@H]1C[C@]2(C)[C@@H](C(C)=O)CC[C@H]2[C@@H]2CC[C@H]3C[C@H](O)CC[C@]3(C)[C@H]21)CC(C)C` [Example 195] are 59 mg and 2.98.
On the same counts, the results for `CC(=O)[C@H]1CC[C@H]2[C@@H]3CC[C@H]4C[C@H](O)CC[C@]4(C)[C@H]3[C@@H](OC(=O)CN(C(C)C)C(C)C)C[C@]12C` [Example 153] are 79 mg and 3.02.
As to `CC(=O)[C@H]1CC[C@H]2[C@@H]3CC[C@H]4C[C@H](O)CC[C@]4(C)[C@H]3[C@@H](OC(=O)CN(C)C)C[C@]12C` [Example 151], the Dissolved aminoester in data set [1] (setting [6]) was 100 mg. The pH in “pH of the salt solutions” (setting [3]) was 3.6.
On the same counts, the results for `CCN(CC)CC(=O)O[C@H]1C[C@]2(C)[C@@H](C(C)=O)CC[C@H]2[C@@H]2CC[C@H]3C[C@](C)(O)CC[C@]3(C)[C@H]21` [Example 131] are 100 mg and 3.55.
On the same counts, the results for `CCCN(CCC)CC(=O)O[C@H]1C[C@]2(C)[C@@H](C(=O)CO)CC[C@H]2[C@@H]2CC[C@H]3C[C@H](O)CC[C@]3(C)[C@H]21` [Example 210] are 100 mg and 3.7.
With `CCCN(CCC)CC(=O)O[C@H]1C[C@]2(C)[C@@H](C(C)=O)CC[C@H]2[C@@H]2CC[C@H]3C[C@H](O)CC[C@]3(C)[C@H]21` [Example 215], the Dissolved aminoester in data set [1] (setting [5]) was found to be 111 mg. Moreover, the pH in the data set “pH of the salt solutions” (setting [3]) is listed as 3.63.
On the same counts, the results for `CCCCN(C)C(C)C(=O)O[C@H]1C[C@]2(C)[C@@H](C(C)=O)CC[C@H]2[C@@H]2CC[C@H]3C[C@H](O)CC[C@]3(C)[C@H]21` (stereo partly drawn) [Example 182] are 49 mg and 3.43.
For the compound `CC(=O)[C@H]1CC[C@H]2[C@@H]3CC[C@H]4C[C@H](O)CC[C@]4(C)[C@H]3[C@@H](OC(=O)CN(C)C(C)C)C[C@]12C` [Example 183], the Dissolved aminoester in data set [1] (setting [2]) is 57.5 mg. Also, the pH in the data set “pH of the salt solutions” (setting [3]) stood at 2.69.
For `CCCN(C)CC(=O)O[C@H]1C[C@]2(C)[C@@H](C(C)=O)CC[C@H]2[C@@H]2CC[C@H]3C[C@H](O)CC[C@]3(C)[C@H]21` [Example 117], the Dissolved aminoester in data set [1] (setting [6]) worked out at 100 mg. For the same compound, the pH in “pH of the salt solutions” (setting [3]) is listed as 3.4.
Take `CCCCCCN(C)CC(=O)O[C@H]1C[C@]2(C)[C@@H](C(C)=O)CC[C@H]2[C@@H]2CC[C@H]3C[C@H](O)CC[C@]3(C)[C@H]21` [Example 189]: in data set [1] (setting [2]), the Dissolved aminoester was 93 mg. The pH in “pH of the salt solutions” (setting [3]) is given as 2.98.
Regarding `CCCN(CCC)CC(=O)O[C@H]1C[C@]2(C)[C@@H](C(C)=O)CC[C@H]2[C@@H]2CC[C@H]3C[C@H](O)CC[C@]3(C)[C@H]21` [Example 212], the Dissolved aminoester in data set [1] (setting [7]) is given as 73 mg. In addition, in “pH of the salt solutions” (setting [3]), the pH was 3.6.
On the same counts, the results for `CCCCN(CC)CC(=O)O[C@H]1C[C@]2(C)[C@@H](C(C)=O)CC[C@H]2[C@@H]2CC[C@H]3C[C@H](O)CC[C@]3(C)[C@H]21` [Example 220] are 100 mg and 3.6.
As for `CCCN(CCC)CC(=O)O[C@H]1C[C@]2(C)[C@@H](C(C)=O)CC[C@H]2[C@@H]2CC[C@H]3C[C@H](O)CC[C@]3(C)[C@H]21` [Example 154], in data set [1] (setting [5]), the Dissolved aminoester is 91 mg. Further, in the data set “pH of the salt solutions” (setting [3]), the pH was found to be 3.5.
As for `CC(=O)[C@H]1CC[C@H]2[C@@H]3CC[C@H]4C[C@H](O)CC[C@]4(C)[C@H]3[C@@H](OC(=O)CNC3CCCCC3)C[C@]12C` [Example 138], the Dissolved aminoester in data set [1] (setting [6]) turned out to be 100 mg. The pH in “pH of the salt solutions” (setting [3]) turned out to be 3.10.
Take `CC(=O)[C@H]1CC[C@H]2[C@@H]3CC[C@H]4C[C@H](O)CC[C@]4(C)[C@H]3[C@@H](OC(=O)CCN(C)C(C)CC(C)C)C[C@]12C` (stereo partly drawn) [Example 200]: the Dissolved aminoester in data set [1] (setting [2]) stood at 83 mg. In addition, the pH in “pH of the salt solutions” (setting [3]) is recorded as 3.2.

The values above are taken from patent publication US4192871A, “Chemical compounds” (Glaxo Laboratories Limited, priority 1976, dated 1980).
